Source: article PMC6745035, “Novel tetrahydroacridine derivatives with iodobenzoic moieties induce G0/G1 cell cycle arrest and apoptosis in A549 non-small lung cancer and HT-29 colorectal cancer cells” (Molecular and Cellular Biochemistry, 2019)

Columns and labels:
HT-29 cells [1] = test: MTT cytotoxicity assay, HT-29; format: cell-based; conditions: Homo sapiens, HT-29; MTT, 24 h incubation; read-out: IC50 µM ± SD against HT-29
From the text: The MTT assay was used to evaluate cell metabolic activity. The test principle is based on the determination of cell viability by measuring the metabolic activity in mitochondria. Enzymatically active mitochondria reduce the water-soluble MTT (3-(4,5-dimethylthiazol-2-yl)-2,5 diphenyltetrazoliumbromide) to blue–violet insoluble formazan. The number of viability cells is proportional to the colour intensity determined by photometric measurements (an analytical wavelength 570 nm) after dissolving the formazan in Dimethylsulfoxide (DMSO) (Serva) and Sorensen’s glycine buffer. MTT (Sigma Aldrich) was dissolved in Phosphate Buffered Saline (PBS) (PAN-Biotech) at a concentration of 0.5 mg/mL. Sorensen’s glycine buffer is made of 0.1 M glycine and 0.1 M NaCl, at pH 10.5. Studied compounds were dissolved in DMSO in order to receive stock solutions.
For the assay, cells were seeded into 96-well plates at density 10^4 cells per well and cultured for 24 h at 37 °C and 5% CO2. Then medium was removed, and cells were exposed to the 100 µL of the compound solutions over a range of concentrations (final DMSO concentration was below 0.2%) or nothing but culture medium (blank control). Pure DMSO was used as a positive control. After 24 h of incubation with the compound solutions, medium was removed and 50 µL of the MTT solution was added to each well and incubated in the dark for additional 2 h at 37 °C. Then the MTT solution was carefully removed and 100 µL of DMSO was added. Plates were incubated for 10 min at room temperature. Finally, 5 µL of Sorensen Buffer was added to each well. Plate was swayed, and the absorbance was measured by using microplate reader (Synergy H1, BioTek, Winooski, VT, USA) at a wavelength of 570 nm. The cell viability was expressed as a percentage of the control values (blank). The experiments were done in triplicate.

supercoiled pUC19 DNA = conditions: 100 µM; human Topoisomerase I
γ-H2AX [2] = test: Western blot of γ-H2AX, A549; format: cell-based, human; conditions: A549, 24 h, IC50 and 1/2IC50
Description: (§1) Then, cells were treated with chosen compounds. After 24 h of incubation, monolayer and supernatant were harvested and washed in cold PBS. Cells were centrifuged—monolayer at 1200 rpm for 10 min, supernatant 3500 rpm for 10 min. Pellets were dissolved in RIPA Lysis and Extraction buffer (Bio-Rad) containing Phosphatase Inhibitor Cocktail 3 (Sigma Aldrich) and Protease Inhibitor Cocktail (Sigma Aldrich). Samples were incubated in ice for 30 min and mixed every 10 min. Then, samples were centrifuged at 12,000 rpm for 25 min. Protein concentration in supernatants was measured in triplicate using a Protein Assay (Bio-Rad). Proteins were separated by SDS–polyacrylamide gel electrophoresis. Separating and stacking gels were made of different ratios of water, Tris–HCl pH 6.8 and pH 8.8, 10% SDS (Sigma Aldrich), Acrylamide/bis-acrylamide (Sigma Aldrich), 10% APS (Sigma Aldrich), TEMED (Sigma Aldrich). 7.5% gels were prepared for analysis PARP-1, whereas 12% gels prepared for γ-H2AX. After separation on SDS–polyacrylamide gels, proteins were electroblotted on nitrocellulose membrane in Transfer Buffer (Glycine, Tris, Methanol). Membranes were washed in TBS/0.1% or 0.05% Tween20 solution and blocked in Tris-buffered saline with 5% of non-fated dried milk for 1 h. Membranes were then incubated overnight with primary antibodies—anti-PARP-1 (Cell Signaling Technology), anti-γ-H2A.X (Cell Signaling Technology), anti-β-actin (Cell Signaling Technology) in cold room (6 °C). After incubation, membranes well washed with TBS/Tween solution and blocked with and horseradish peroxidase-conjugated secondary antibodies (Bio-Rad) for 1 h in cold room. Protein bands were visualized using ECL™ Prime Western Blotting Detection Reagents (Sigma Aldrich) Healthcare and Carestream Kodak autoradiography GBX fixer/replenisher (Sigma Aldrich) with Developer and Replenisher (Carestream) in the dark room. Results were obtained on Autoradiography Film (Santa Cruz Biotechnology). Densitometric analysis was performed by using a software program (ImageJ). […]

A549 cells [3] = test: Apoptosis assay by annexin-V/PI double staining, A549; format: cell-based, human; conditions: A549, 24 h, compound at 2xIC50 (1i 29.74 µM); control 7.80%
Description: Compounds were added to the cells and further incubated for 24 h. After treatment, monolayer and supernatant cells were harvested, washed with PBS and centrifuged (monolayer at 1200 rpm for 10 min, supernatant at 3500 rpm for 10 min). Then, cells were re-suspended in binding buffer and stained with 2 µL of Annexin-V and […] of PI (ANNEXIN-V—FITC Apoptosis Detection Kit, Immunostep) in the dark for 10 min at room temperature. Cells were analysed by BD Accuri C6 Flow Cytometry (Becton–Dickinson). Etoposide (Calbiochem) was used as a reference drug. Experiments were done in triplicates.

SH-SY5Y cells = test: Cytoprotection against rotenone/oligomycin A, pre-incubation, MTT; format: cell-based, human; conditions: for Cytoprotection: pre-incubation with rotenone/oligomycin A; for Cytoprotective properties in the pre-incubation assay (in words): rotenone/oligomycin A, range of concentration 1–0.001 µM;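 as to Cytoprotection: Toxic mixture Rotenone 30 µM plus Oligomycin A 10 µM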
Description: Rotenone with oligomycin A (R/O) were taken to induce mitochondrial ROS by blocking of complexes I and V of the mitochondrial electron transport chain. It causes free radical production and blockade of ATP synthesis. In the pre-incubation experiment, it could be assessed whether the compounds have cytoprotective properties due to the activation of endogenous antioxidant pathways. In the co-incubation could be shown whether compounds are free-radical scavengers. MTT assay was a test of choice, because in this assay mitochondrial activity is measured. […] It can be determined whether novel compound would protect cells from both apoptotic and necrotic death resulting from the increase of intracellular ROS. In both experiments, trolox was used as a reference compound. […] After this time, toxic mixture was added, and cells were maintained for an additional 24 h in the presence of the compounds.

A549 cells [4] = test: Colony forming assay, A549; format: cell-based, human
From the text: The plates were placed on ice.

γ-H2AX [5] = test: Western blot of γ-H2AX, HT-29; format: cell-based, human; conditions: HT-29, 24 h, IC50 and 1/2IC50
Description: as §1

HT-29 cells [6] = test: Reactive oxygen species assay (DCFH-DA), HT-29; format: cell-based, human; conditions: compound at IC50 24 h plus H2O2, H2O2 only 1.88-fold
Description: After incubation, compounds were added into the wells and further incubated for next 24 h. H2O2 (1 mM) was added at 22nd h of incubation with compounds. H2O2 was used as a positive control. 30 min before the analysis, DCFH-DA (20 µM) was added to the wells. After incubation, cells were harvested and washed in PBS. Then, cells were centrifuged at 1500 rpm for 10 min. Medium was removed and cells were suspended in PBS. Analysis was performed on BD Accuri C6 Flow Cytometry (Becton–Dickinson).

PARP-1 = test: Western blot of PARP-1 cleavage, HT-29; format: cell-based, human; conditions: HT-29, 24 h, IC50 and 1/2IC50
Description: as §1

Intercalation: supercoiled pUC19 DNA band (in words) (supercoiled pUC19 DNA)	Compound	IC50 (HT-29 cells [1]) [µM]	γ-H2AX protein level / DNA damage (in words) (γ-H2AX [2])	Total apoptotic cells (A549 cells [3]) [%]	Cytoprotection (SH-SY5Y cells; 0.001 µM) [%]	Cytoprotection (SH-SY5Y cells; 0.01 µM) [%]	Cytoprotection (SH-SY5Y cells; 0.1 µM) [%]	Cytoprotection (SH-SY5Y cells; 1 µM) [%]	Cytoprotective properties in the pre-incubation assay (in words) (SH-SY5Y cells)	Number of colonies expressed as percent of control number (A549 cells [4]; compound at 1/2IC50) [%]	Number of colonies expressed as percent of control number (A549 cells [4]; compound at 2xIC50) [%]	Number of colonies expressed as percent of control number (A549 cells [4]; compound at IC50) [%]	γ-H2AX protein level / DNA damage (in words) (γ-H2AX [5])	Increase in ROS level (DCF fluorescence) in comparison with non-treated control (HT-29 cells [6]) [fold]	Cleaved PARP-1 (89 kDa) level (in words) (PARP-1)
bands at the same level as EB	O=C(NCCCNc1c2c(nc3ccccc13)CCCC2)c1cccc(I)c1 [Compound 1e]	11 ± 0.59	strongest effect	44.96	36.22	51.19	46.39	24.79	showed their action against oxidative stress in the whole range of concentrations	–	–	–	–	–	–
–	O=C(NCCCCNc1c2c(nc3ccccc13)CCCC2)c1ccc(I)cc1 [Compound 1i]	5.9 ± 0.42	higher ability to damage DNA at 1/2IC50 concentration (7.44 µM) than at IC50 concentration (14.87 µM)	71.98	–	–	–	–	did not show cytoprotective properties	39.47	0	4.70	strongest H2AX phosphorylation	1.85	highest PARP-1 cleavage
bands at the same level as EB	O=C(NCCCCNc1c2c(nc3ccccc13)CCCC2)c1ccccc1I [Compound 1c]	13.6 ± 1.39	–	–	32.91	37.05	33.15	33.92	showed their action against oxidative stress in the whole range of concentrations	–	–	–	lowest effect on DNA damage	1.83	lower apoptosis at IC50 concentrations

Compound	Intercalation: supercoiled pUC19 DNA band (in words) (supercoiled pUC19 DNA)	IC50 (HT-29 cells [1]) [µM]	γ-H2AX protein level / DNA damage (in words) (γ-H2AX [2])	Total apoptotic cells (A549 cells [3]) [%]	Cytoprotection (SH-SY5Y cells; 0.001 µM) [%]	Cytoprotection (SH-SY5Y cells; 0.01 µM) [%]	Cytoprotection (SH-SY5Y cells; 0.1 µM) [%]	Cytoprotection (SH-SY5Y cells; 1 µM) [%]	Cytoprotective properties in the pre-incubation assay (in words) (SH-SY5Y cells)	Number of colonies expressed as percent of control number (A549 cells [4]; compound at 1/2IC50) [%]	Number of colonies expressed as percent of control number (A549 cells [4]; compound at 2xIC50) [%]	Number of colonies expressed as percent of control number (A549 cells [4]; compound at IC50) [%]	γ-H2AX protein level / DNA damage (in words) (γ-H2AX [5])	Increase in ROS level (DCF fluorescence) in comparison with non-treated control (HT-29 cells [6]) [fold]	Cleaved PARP-1 (89 kDa) level (in words) (PARP-1)
O=C(NCCCNc1c2c(nc3ccccc13)CCCC2)c1ccccc1I [Compound 1b]	bands at the same level as EB	16.1 ± 1.55	slightly lower	45.31	–	–	–	–	did not show cytoprotective properties	–	3.55	–	–	–	–
